Laboratory results: ChEMBL document CHEMBL2057136, “Discovery of MEK/PI3K dual inhibitor via structure-based virtual screening” (Bioorg Med Chem Lett, 2012)

Key:
[1] = target: T1, Dual specificity mitogen-activated protein kinase kinase 1 (Homo sapiens, UniProt Q02750); assay: Inhibition of MEK1 at 10 uM using [gamma32P]ATP by radiometric kinase assay
[2] = target: Phosphatidylinositol 4,5-bisphosphate 3-kinase catalytic subunit alpha isoform (Homo sapiens, UniProt P42336); assay: Inhibition of PI3Kalpha using [gamma32P]ATP by radiometric kinase assay
[3] = target: T1, Dual specificity mitogen-activated protein kinase kinase 1; assay: Inhibition of MEK1 using [gamma32P]ATP by radiometric kinase assay
[4] = target: Dual specificity mitogen-activated protein kinase kinase 2 (Homo sapiens, UniProt P36507); assay: Inhibition of MEK2 using [gamma32P]ATP by radiometric kinase assay
Dual specificity mitogen-activated protein kinase kinase 2, sequence (P36507 whole entry): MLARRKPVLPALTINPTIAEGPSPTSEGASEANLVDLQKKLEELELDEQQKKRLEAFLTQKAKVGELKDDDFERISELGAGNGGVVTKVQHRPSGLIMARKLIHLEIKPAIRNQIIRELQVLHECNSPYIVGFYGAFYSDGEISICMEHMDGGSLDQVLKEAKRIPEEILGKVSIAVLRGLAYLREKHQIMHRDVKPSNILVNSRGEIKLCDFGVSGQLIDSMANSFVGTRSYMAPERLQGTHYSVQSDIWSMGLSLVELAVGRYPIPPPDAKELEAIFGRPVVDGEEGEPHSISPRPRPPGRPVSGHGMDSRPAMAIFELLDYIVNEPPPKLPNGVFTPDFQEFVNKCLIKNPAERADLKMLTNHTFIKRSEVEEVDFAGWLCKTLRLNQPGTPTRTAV

T1 sequence (Q02750 whole entry, canonical isoform): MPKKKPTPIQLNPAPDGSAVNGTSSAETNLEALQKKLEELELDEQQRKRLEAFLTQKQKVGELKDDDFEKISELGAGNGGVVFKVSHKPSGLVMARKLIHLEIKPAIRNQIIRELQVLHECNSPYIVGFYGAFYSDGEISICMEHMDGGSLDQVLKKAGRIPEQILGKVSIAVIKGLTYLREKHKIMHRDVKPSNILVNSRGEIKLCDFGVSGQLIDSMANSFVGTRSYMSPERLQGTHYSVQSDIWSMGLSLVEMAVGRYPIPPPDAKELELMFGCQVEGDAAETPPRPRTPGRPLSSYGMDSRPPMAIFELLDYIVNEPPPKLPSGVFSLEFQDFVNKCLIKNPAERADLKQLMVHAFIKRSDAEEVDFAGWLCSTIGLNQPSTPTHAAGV
Phosphatidylinositol 4,5-bisphosphate 3-kinase catalytic subunit alpha isoform, sequence (P42336 whole entry, canonical isoform): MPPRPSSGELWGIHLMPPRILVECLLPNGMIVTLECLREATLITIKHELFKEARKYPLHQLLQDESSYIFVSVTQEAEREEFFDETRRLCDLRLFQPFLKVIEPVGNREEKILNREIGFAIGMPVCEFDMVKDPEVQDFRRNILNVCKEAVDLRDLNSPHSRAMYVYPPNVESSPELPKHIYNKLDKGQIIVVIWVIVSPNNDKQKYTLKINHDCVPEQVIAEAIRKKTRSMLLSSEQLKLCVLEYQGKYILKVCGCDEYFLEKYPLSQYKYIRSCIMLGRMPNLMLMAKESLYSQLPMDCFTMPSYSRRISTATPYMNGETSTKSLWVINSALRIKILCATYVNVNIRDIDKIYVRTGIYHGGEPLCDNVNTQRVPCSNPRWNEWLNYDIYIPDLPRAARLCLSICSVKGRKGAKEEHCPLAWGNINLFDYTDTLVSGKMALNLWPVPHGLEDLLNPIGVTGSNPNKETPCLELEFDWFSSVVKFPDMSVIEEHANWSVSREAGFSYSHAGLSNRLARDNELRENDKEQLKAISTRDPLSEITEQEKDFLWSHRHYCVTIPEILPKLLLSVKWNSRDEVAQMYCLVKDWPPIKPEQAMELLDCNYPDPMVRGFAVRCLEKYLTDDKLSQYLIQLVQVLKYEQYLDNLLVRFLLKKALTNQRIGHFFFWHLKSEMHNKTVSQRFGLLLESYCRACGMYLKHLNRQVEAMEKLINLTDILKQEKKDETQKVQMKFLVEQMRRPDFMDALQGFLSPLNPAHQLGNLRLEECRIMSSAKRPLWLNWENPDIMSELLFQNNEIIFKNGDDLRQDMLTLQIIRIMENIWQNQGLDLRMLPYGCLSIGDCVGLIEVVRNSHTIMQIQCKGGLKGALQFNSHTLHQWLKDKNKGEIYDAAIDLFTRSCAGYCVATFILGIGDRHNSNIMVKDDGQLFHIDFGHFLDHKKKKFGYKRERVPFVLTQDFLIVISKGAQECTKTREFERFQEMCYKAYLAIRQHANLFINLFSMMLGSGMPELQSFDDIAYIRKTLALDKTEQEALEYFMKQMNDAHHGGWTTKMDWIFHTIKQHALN

| inhibition [1] [%] | IC50 [2] [µM] | IC50 [3] [µM] | IC50 [4] [µM] | Compound |
| --- | --- | --- | --- | --- |
| > 30 | 10.2 | 8.5 |  | N=C1/C(=C\c2coc3ccccc3c2=O)C(=O)N=C2SC(c3ccc(O)cc3)=NN12 |
| > 30 | > 30 | 12.3 |  | OCCNc1ncnc2oc(-c3ccccc3)c(-c3ccccc3)c12 |
| > 30 | 0.3 | 2.2 | 1.3 | N=C1/C(=C\c2ccc(O)c(O)c2)C(=O)N=C2SC(c3ccc(O)cc3)=NN12 |
| > 30 | > 30 | 23.1 |  | O=C(O)c1cccc(N2C(=O)/C(=C\c3cnc4ccccc4n3)SC2=S)c1 |
